Results reported in ChEMBL document CHEMBL3885861, “Open TG-GATES”.

Species on record: Rattus norvegicus
Experiment: Open TG-GATES - Regimen: Daily Repeat
Assay type: toxicity, organism-based, Sprague-Dawley
Set-up: regimen Daily Repeat, gender Male, age 6 weeks
Details: in vivo, po, 0 mg/kg, route gavage, dose level Control; for APTT / Bas / Eos / Fbg / Hb / Ht / Lym / MCH / MCHC / MCV / Mono / Neu / PT / Plat / RBC / Ret / WBC: tissue Blood; for KIDNEY_L / KIDNEY_R / KIDNEY_TOTAL: tissue Kidney; for LIVER: tissue Liver; for A/G / ALP / ALT / AST / BUN / CRE / Ca / Cl / DBIL / GLC / IP / K / LDH / Na / PL / RALB / TBIL / TC / TG / TP / gamma-GTP: tissue Plasma

## CCCNC(=O)NS(=O)(=O)c1ccc(Cl)cc1 [CHLORPROPAMIDE]
72 h, time 3 day
  TERMINAL_BW: 215.2 g
  APTT: 17.7 s
  Bas: 0.2%
  Eos: 1%
  Fbg: 289.2 mg/dL
  Hb: 13.2 g/dL
  Ht: 40.3%
  Lym: 78%
  MCH: 21.8 pg
  MCHC: 32.8%
  MCV: 66.6 fL
  Mono: 4%
  Neu: 16%
  PT: 15.4 s
  Plat: 120.9 x10_4/uL
  RBC: 605.6 x10_4/ul
  Ret: 7.5%
  WBC: 84 x10_2/uL
  KIDNEY_L: 0.9 g
  KIDNEY_R: 0.9 g
  KIDNEY_TOTAL: 1.9 g
  LIVER: 10.4 g
  A/G: 0.9
  ALP: 1591.4 IU/L
  ALT: 48.2 IU/L
  AST: 71.6 IU/L
  BUN: 16.8 mg/dL
  CRE: 0.2 mg/dL
  Ca: 10.8 mg/dL
  Cl: 105 meq/L
  DBIL: 0.01 mg/dL
  GLC: 184 mg/dL
  IP: 7.3 mg/dL
  K: 4 meq/L
  LDH: 95.2 IU/L
  Na: 142.2 meq/L
  PL: 154.6 mg/dL
  RALB: 2.7 g/dL
  TBIL: 0.034 mg/dL
  TC: 80.4 mg/dL
  TG: 107.2 mg/dL
  TP: 5.8 g/dL
  gamma-GTP: 1 IU/L
[…], time 7 day
  TERMINAL_BW: 251.8 g
  APTT: 17.6 s
  Bas: 0.2%
  Eos: 1%
  Fbg: 294 mg/dL
  Hb: 13.7 g/dL
  Ht: 40.9%
  Lym: 76.2%
  MCH: 21.6 pg
  MCHC: 33.4%
  MCV: 64.7 fL
  Mono: 2.6%
  Neu: 18.8%
  PT: 15.5 s
  Plat: 124.5 x10_4/uL
  RBC: 632 x10_4/ul
  Ret: 6.4%
  WBC: 98.4 x10_2/uL
  KIDNEY_L: 1.1 g
  KIDNEY_R: 1.1 g
  KIDNEY_TOTAL: 2.2 g
  LIVER: 11.6 g
  A/G: 0.8
  ALP: 1869.6 IU/L
  ALT: 43.2 IU/L
  AST: 69.4 IU/L
  BUN: 15.4 mg/dL
  CRE: 0.2 mg/dL
  Ca: 10.9 mg/dL
  Cl: 106 meq/L
  DBIL: 0.014 mg/dL
  GLC: 185.6 mg/dL
  IP: 6.7 mg/dL
  K: 4.2 meq/L
  LDH: 97.4 IU/L
  Na: 143 meq/L
  PL: 154.2 mg/dL
  RALB: 2.7 g/dL
  TBIL: 0.036 mg/dL
  TC: 82 mg/dL
  TG: 105.2 mg/dL
  TP: 5.8 g/dL
  gamma-GTP: 1.2 IU/L
[…], time 14 day
  TERMINAL_BW: 307.1 g
  APTT: 18.5 s
  Bas: 0.2%
  Eos: 1%
  Fbg: 274 mg/dL
  Hb: 14.5 g/dL
  Ht: 42.8%
  Lym: 78.4%
  MCH: 20.6 pg
  MCHC: 33.8%
  MCV: 60.8 fL
  Mono: 2.4%
  Neu: 17.4%
  PT: 15.2 s
  Plat: 122.4 x10_4/uL
  RBC: 703.6 x10_4/ul
  Ret: 4.5%
  WBC: 115.5 x10_2/uL
  KIDNEY_L: 1.2 g
  KIDNEY_R: 1.2 g
  KIDNEY_TOTAL: 2.4 g
  LIVER: 13.6 g
  A/G: 0.8
  ALP: 1479.6 IU/L
  ALT: 44.6 IU/L
  AST: 68.6 IU/L
  BUN: 18.4 mg/dL
  CRE: 0.2 mg/dL
  Ca: 10.7 mg/dL
  Cl: 104.2 meq/L
  DBIL: 0.012 mg/dL
  GLC: 194.6 mg/dL
  IP: 7.3 mg/dL
  K: 4.1 meq/L
  LDH: 120 IU/L
  Na: 143.4 meq/L
  PL: 164 mg/dL
  RALB: 2.8 g/dL
  TBIL: 0.032 mg/dL
  TC: 77.8 mg/dL
  TG: 158.4 mg/dL
  TP: 6.1 g/dL
  gamma-GTP: 1 IU/L
[…], time 28 day
  TERMINAL_BW: 390.8 g
  APTT: 20.6 s
  Bas: 0.2%
  Eos: 1.2%
  Fbg: 259.6 mg/dL
  Hb: 14.9 g/dL
  Ht: 45.3%
  Lym: 78.8%
  MCH: 19 pg
  MCHC: 32.9%
  MCV: 57.5 fL
  Mono: 2%
  Neu: 17%
  PT: 16.1 s
  Plat: 94.8 x10_4/uL
  RBC: 787.4 x10_4/ul
  Ret: 2.2%
  WBC: 103.1 x10_2/uL
  KIDNEY_L: 1.4 g
  KIDNEY_R: 1.4 g
  KIDNEY_TOTAL: 2.8 g
  LIVER: 14.6 g
  A/G: 0.8
  ALP: 1207 IU/L
  ALT: 40.2 IU/L
  AST: 66.8 IU/L
  BUN: 16.2 mg/dL
  CRE: 0.2 mg/dL
  Ca: 10.6 mg/dL
  Cl: 105.6 meq/L
  DBIL: 0.01 mg/dL
  GLC: 188.8 mg/dL
  IP: 6.5 mg/dL
  K: 3.8 meq/L
  LDH: 88.4 IU/L
  Na: 144 meq/L
  PL: 137.6 mg/dL
  RALB: 2.7 g/dL
  TBIL: 0.03 mg/dL
  TC: 65.8 mg/dL
  TG: 122.6 mg/dL
  TP: 6.1 g/dL
  gamma-GTP: 1 IU/L
